Test results taken from patent US20120046321A1, “METHODS OF TREATING ATRIAL FIBRILLATION WITH P38 INHIBITOR COMPOUNDS” (INTERMUNE, INC., priority 2005, published 2012).

Tested on: canines with ventricular tachypacing (VTP)-induced congestive heart failure (CHF)
Assay: Open-chest electrophysiology and epicardial mapping (ERP, CV, conduction heterogeneity)
Type: in vivo, canine
Source text: Briefly, 15 adult mongrel canines (weight 20 to 32 kgs) were divided into 3 groups (n=5 in each group) as follows: Group 1: Normal; Group 2: CHF canines not treated with PFD (or CHF); and Group 3: CHF canines treated with PFD (or CHF+PFD). […] The CHF and CHF+PFD canines underwent placement of a permanent single-chamber pacemaker with the pacing lead positioned in the right ventricular apex followed by radiofrequency catheter ablation of the AV junction to create complete heart block. Canines in the CHF and CHF+PFD groups underwent 3 weeks of VTP at a rate of 220 bpm. Oral PFD (800 mg three times a day) (InterMune, Brisbane, Calif.) was started 2 days prior to the initiation of VTP and was given for the full duration of the pacing period. During the follow-up EP study, each animal was anesthetized with isoflurane and mechanically ventilated. The pacemaker rate was set at 80 bpm at twice diastolic threshold for the entire EP study. The chest was opened with a midline sternotomy. A pericardial cradle was created, and 4 custom-made, epicardial, high-density plaques (left atrial free wall (LAFW); left atrial Bachmann's bundle (LABB); right atrial free wall (RAFW); right atrial Bachmann's bundle (RABB)) were placed over the atria (512 electrodes with an inter-electrode distance of 2.5 mm), similar to the setup described in Verheule S, et al., Circulation 107:2615-22 (2003) and Sih H J, et al. J Am Coll Cardiol. 36:924-31 (2000). Unipolar electrode signals were acquired (sampling rate 2 kHz) and stored with the UnEmap mapping system (University of Auckland, New Zealand). Electrode pairs on the epicardial plaque were used for bipolar stimulation at twice diastolic threshold. Effective refractory periods (ERPs) were measured at 12 atrial sites (6 in LA, 6 in RA) using the single extrastimulus protocol (S1S2) at an 8-beat drive train basic cycle lengths (BCLs) of 200, 300, and 400 ms. During stimulation of the contralateral Bachmann's bundle, conduction velocity (CV) was calculated between pairs of plaque electrodes perpendicular to the activation wavefront with a custom-written software. Verheule S, et al., Am J Physiol Heart Circ Physiol. 2004; 287:H634-44; and Bayly P V, et al., IEEE Trans Biomed Eng. 1998; 45:563-71. Used as a marker of conduction heterogeneity (Verheule S, et al., Am J Physiol Heart Circ Physiol. 2004; 287:H634-44; Bayly P V, et al., IEEE Trans Biomed Eng. 1998; 45:563-71; and Ausma J, et al., Circulation. 1997; 96:3157-63), the phase difference (ms/mm) was defined as the average difference in activation time between a plaque electrode from all of its neighboring electrodes normalized by the inter-electrode distance. Frequency histograms were constructed for the phase differences within an atrial region. The histograms were summarized as the median phase (P50), and the 5th and 95th percentile phase, or P5 and P95 of the distribution, respectively. Two measures were derived to quantify conduction heterogeneity: 1) absolute conduction heterogeneity, defined as P95-P5 (P95-5), and 2) conduction heterogeneity index, defined as the absolute conduction heterogeneity normalized by the median phase, or P95-5/P50.

In the case of `Cc1ccc(=O)n(-c2ccccc2)c1` [PFD, 5-methyl-1-phenyl-2-(1H)-pyridone], the “LA CVs compared with the untreated group” value (3 pacing BCLs) is reported as “non-statistically significant increase”, the “LA ERPs” value (BCLs 200, 300, 400 ms, p=NS vs untreated, p<0.03 vs Normal) is reported as “further lengthening” and the “Conduction heterogeneity index (P95-5/P50) in the LA” value (all BCLs, p<0.02 at 300 and 400 ms) is reported as “reduction”. For the same molecule, the “Absolute conduction heterogeneity (P95-5) in the LA” value (all BCLs, p<0.04 at 400 ms) was “reduction”, the “Absolute conduction heterogeneity (P95-5) in the RA” value (p<0.003 at 400 ms) was “decrease” and the “Conduction heterogeneity index (P95-5/P50) in the RA” value (p<0.003 at 400 ms) was “decrease”. The “Local conduction heterogeneity in isochronal activation maps” value (pacing CL 300 ms, 4 atrial plaques) was “less”.
